Measurements: the SangsterLogP compilation

experiment: from Nakagawa, S.; Okajima, N.; Kitahaba, T.; Nishimura, K.; Fujita, T.; Nakajima, M. (1982). Quantitative structure-activity studies of substituted benzylchrysanthemates. I. Correlation between …

Row | SMILES | logP
1 | CC(=O)OCc1ccc(C)cc1 | 2.44
2 | CC(=O)OCc1ccc(Cl)cc1 | 2.59
3 | CC(=O)OCc1coc(Cc2ccccc2)c1 | 3.24
4 | CC(C)=C[C@@H]1[C@@H](C(=O)OCc2ccccc2[N+](=O)[O-])C1(C)C | 5.2
5 | COC(=O)[C@@H]1[C@@H](C=C(C)C)C1(C)C | 3.76
6 | COC(=O)C1C(C=C2CCSC2=O)C1(C)C (stereo not drawn) | 2.33
7 | CC(=O)OCc1ccc([N+](=O)[O-])cc1 | 1.73
8 | CC(C)=CC1C(C(=O)OCc2ccccc2)C1(C)C (stereo not drawn) | 5.49
9 | CC(=O)OCN1C(=O)C2=C(CCCC2)C1=O | 1.15
10 | CC(C)=C[C@@H]1[C@@H](C(=O)OCc2ccc(C#N)cc2)C1(C)C | 4.91
11 | C=CCC1=C(C)[C@H](OC(=O)C2C(C=C(C)C)C2(C)C)CC1=O (stereo partly drawn) | 4.78
12 | COc1cccc(COC(C)=O)c1 | 2.02
13 | COC(=O)C1C(C=C(Cl)Cl)C1(C)C (stereo not drawn) | 3.63
